This experiment deals with T1, human PDE2A1 (Homo sapiens, UniProt O00408).
T1 construct: GST; purchased BPS Bioscience (San Diego, Calif.) 60020; host or cells: insect cells
Put plainly: IMAP FP PDE selectivity panel, human PDE2A1. The experiment is classed as biochemical. Conditions: Lab B; read-out: Human PDE2 Ki (nM) Lab B. The method, then:
Selectivity for PDE2, as compared to other PDE families, was assessed using the IMAP® technology. Human PDE10A2 enzyme was prepared from cytosolic fractions of transiently transfected HEK cells.
Assays for PDE 1 through 11 were performed in parallel at room temperature in 384-well microtiter plates with an incubation volume of 20.2 μL. Solutions of test compounds were prepared in DMSO and serially diluted with DMSO to yield 30 μL of each of ten solutions differing by 3-fold in concentration, at 32 serial dilutions per plate. […] A Labcyte POD 810 (Labcyte, Sunnyvale, Calif.) was used to dispense 200 nL from each well of the titration plate to make eleven copies of the assay plate for each titration, one copy for each PDE enzyme. A solution of each enzyme (dilution from aliquots, sufficient to produce 20% substrate conversion) and a separate solution of FAM-labeled cAMP or FAM-labeled cGMP from Molecular Devices (Sunnyvale, Calif., product # R7506 or cGMP#R7508), at a final concentration of 50 nM were made in the assay buffer (10 mM Tris HCl, pH 7.2, 10 mM MgCl2, 0.05% NaN3 0.01% Tween-20, and 1 mM DTT). Note that the substrate for PDE2 is 50 nM FAM cAMP containing 1000 nM of cGMP. The enzyme and the substrate were then added to the assay plates in two consecutive additions of 10 μL and then shaken to mix. The reaction was allowed to proceed at room temperature for 60 minutes. A binding solution was then made from the kit components, comprised of 80% Solution A, 20% Solution B and binding reagent at a volume of 1/600 the total binding solution. The enzymatic reaction was stopped by addition of 60 μL of the binding solution to each well of the assay plate. The plates were sealed and shaken for 10 seconds. The plates were incubated at room temperature for one hour, then the parallel and perpendicular fluorescence was measured using a Tecan Genios Pro plate reader (Tecan, Switzerland). […] The intrinsic PDE2 inhibitory activity of a compound which may be used in accordance with the present invention may be determined by these assays.

A value given as a limit tells only on which side of the number the result lay.

T1 sequence (O00408 1-920 isoform O00408-2): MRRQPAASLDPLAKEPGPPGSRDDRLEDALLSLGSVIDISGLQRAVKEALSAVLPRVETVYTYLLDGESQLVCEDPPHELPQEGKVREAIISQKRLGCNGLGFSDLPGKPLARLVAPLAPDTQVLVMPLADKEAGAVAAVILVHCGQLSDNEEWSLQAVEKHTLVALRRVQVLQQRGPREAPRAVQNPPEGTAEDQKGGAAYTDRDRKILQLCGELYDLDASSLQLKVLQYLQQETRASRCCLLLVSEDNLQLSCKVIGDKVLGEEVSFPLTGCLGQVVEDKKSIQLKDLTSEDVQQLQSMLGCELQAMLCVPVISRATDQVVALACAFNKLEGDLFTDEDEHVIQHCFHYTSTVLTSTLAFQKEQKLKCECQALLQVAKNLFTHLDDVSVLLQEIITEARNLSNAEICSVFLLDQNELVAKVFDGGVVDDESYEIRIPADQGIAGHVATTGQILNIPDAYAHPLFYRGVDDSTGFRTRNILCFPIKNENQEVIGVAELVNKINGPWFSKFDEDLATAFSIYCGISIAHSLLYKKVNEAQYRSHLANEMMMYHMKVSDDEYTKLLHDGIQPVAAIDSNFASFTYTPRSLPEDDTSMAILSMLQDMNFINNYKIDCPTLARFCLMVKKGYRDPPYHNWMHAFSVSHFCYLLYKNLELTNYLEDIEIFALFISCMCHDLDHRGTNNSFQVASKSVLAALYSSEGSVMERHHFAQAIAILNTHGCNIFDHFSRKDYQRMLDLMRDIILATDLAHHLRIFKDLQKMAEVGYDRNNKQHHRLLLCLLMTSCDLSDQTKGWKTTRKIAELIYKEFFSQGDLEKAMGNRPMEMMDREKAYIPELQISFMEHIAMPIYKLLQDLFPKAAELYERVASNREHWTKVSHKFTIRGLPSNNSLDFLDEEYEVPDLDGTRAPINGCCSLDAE

As to `Cc1cc(NC(c2ccc(OC(F)(F)F)c(F)c2)C(C)(C)O)n2nc(C)nc2n1` (single isomer, unassigned) [Example 132, (1S or R)-1-[(2,5-Dimethyl[1,2,4]triazolo[1,5-a]pyrimidin-7-yl)amino]-1-[3-fluoro-4-(trifluoromethoxy)phenyl]-2-methylpropan-2-ol], the inhibition constant Ki is over 2960 nM. Regarding `Cc1cc(NC(c2ccc(OC(F)(F)F)c(F)c2)C(C)(C)O)n2nc(C)nc2n1` (single isomer, unassigned) [Example 133, (1R or S)-1-[(2,5-Dimethyl[1,2,4]triazolo[1,5-a]pyrimidin-7-yl)amino]-1-[3-fluoro-4-(tri-fluoromethoxy)phenyl]-2-methylpropan-2-ol], the Ki is 18 nM. For `Cc1cc(NC(c2ccc(OC(F)(F)F)cc2F)C(C)(C)O)n2nc(C)nc2n1` (single isomer, unassigned) [Example 134, (1S or R)-1-[(2,5-Dimethyl[1,2,4]triazolo[1,5-a]pyrimidin-7-yl)amino]-1-[2-fluoro-4-(tri-fluoromethoxy)phenyl]-2-methylpropan-2-ol], the Ki is over 2960 nM. As for `Cc1cc(NC(c2ccc(OC(F)(F)F)cc2F)C(C)(C)O)n2nc(C)nc2n1` (single isomer, unassigned) [Example 135, (1R or S)-1-[(2,5-Dimethyl[1,2,4]triazolo[1,5-a]pyrimidin-7-yl)amino]-1-[2-fluoro-4-(tri-fluoromethoxy)phenyl]-2-methylpropan-2-ol], the figure is 30 nM.

As to `CC(C)c1cc(NC(c2ccc(OC(F)(F)F)cc2F)C(C)(C)O)n2ncnc2n1` (single isomer, unassigned) [Example 136, (1S or R)-1-[2-Fluoro-4-(trifluoro-methoxy)phenyl]-2-methyl-1-{[5-(1-methylethyl) [1,2,4]triazolo [1,5-a]pyrimidin-7-yl]amino} propan-2-ol], the inhibition constant (Ki) is over 2960 nM. As for `CC(C)c1cc(NC(c2ccc(OC(F)(F)F)cc2F)C(C)(C)O)n2ncnc2n1` (single isomer, unassigned) [Example 137, (1R or S)-1-[2-Fluoro-4-(trifluoro-methoxy)phenyl]-2-methyl-1-{[5-(1-methylethyl) [1,2,4]triazolo [1,5-a]pyrimidin-7-yl]amino} propan-2-ol], the inhibition constant Ki came out at 436 nM. Regarding `CC(C)c1cc(NC(c2ccc(OC(F)(F)F)c(F)c2)C(C)(C)O)n2ncnc2n1` (single isomer, unassigned) [Example 138, (1S or R)-1-[3-Fluoro-4-(trifluoro-methoxy)phenyl]-2-methyl-1-{[5-(1-methylethyl) [1,2,4]triazolo [1,5-a]pyrimidin-7-yl]amino} propan-2-ol], the inhibitory constant (Ki) is about 1570 nM. As for `CC(C)c1cc(NC(c2ccc(OC(F)(F)F)c(F)c2)C(C)(C)O)n2ncnc2n1` (single isomer, unassigned) [Example 139, (1R or S)-1-[3-Fluoro-4-(trifluoro-methoxy)phenyl]-2-methyl-1-{[5-(1-methylethyl) [1,2,4]triazolo [1,5-a]pyrimidin-7-yl]amino} propan-2-ol], the figure is over 2960 nM; as for `CC(C)(O)C(Nc1cc(C2CC2)nc2ncnn12)c1ccc(OC(F)(F)F)c(F)c1` (single isomer, unassigned) [Example 140, (1S or R)-1-[(5- Cyclopropyl [1,2,4]triazolo [1,5-a]pyrimidin-7-yl)amino]-1-[3-fluoro-4-(trifluoro-methoxy)phenyl]-2-methylpropan-2-ol], over 2960 nM; as for `CC(C)(O)C(Nc1cc(C2CC2)nc2ncnn12)c1ccc(OC(F)(F)F)c(F)c1` (single isomer, unassigned) [Example 141, (1R or S)-1-[(5- Cyclopropyl [1,2,4]triazolo [1,5-a]pyrimidin-7-yl)amino]-1-[3-fluoro-4-(trifluoro-methoxy)phenyl]-2-methylpropan-2-ol], 877 nM.

`CC(C)(O)C(Nc1cc(C2CC2)nc2ncnn12)c1ccc(OC(F)(F)F)cc1F` (single isomer, unassigned) [Example 142, (1S or R)-1-[(5- Cyclopropyl [1,2,4]triazolo [1,5-a]pyrimidin-7-yl)amino]-1-[2-fluoro-4-(trifluoro-methoxy)phenyl]-2-methylpropan-2-ol]: the inhibition constant (Ki) is over 2960 nM. On to `CC(C)(O)C(Nc1cc(C2CC2)nc2ncnn12)c1ccc(OC(F)(F)F)cc1F` (single isomer, unassigned) [Example 143, (1R or S)-1-[(5- Cyclopropyl [1,2,4]triazolo [1,5-a]pyrimidin-7-yl)amino)-1-[2-fluoro-4-(trifluoro-methoxy)phenyl]-2-methylpropan-2-ol], for which the inhibition constant Ki stood at 97 nM.

As to `CC(C)(O)C(Nc1cc(C2CC2)nc2ncnn12)c1ccc(S(F)(F)(F)(F)F)cc1` (single isomer, unassigned) [Example 144, (1S or R)-1-[(5- Cyclopropyl [1,2,4]triazolo [1,5-a]pyrimidin-7-yl)amino]-2-methyl-1-[4-(pentafluoro-λ^6-sulfanyl)phenyl]propan-2-ol], the inhibition constant (Ki) was over 2960 nM. On to `CC(C)(O)C(Nc1cc(C2CC2)nc2ncnn12)c1ccc(S(F)(F)(F)(F)F)cc1` (single isomer, unassigned) [Example 145, (1R or S)-1-[(5- Cyclopropyl [1,2,4]triazolo [1,5-a]pyrimidin-7-yl)amino]-2-methyl-1-[4-(pentafluoro-λ^6-sulfanyl)phenyl]propan-2-ol], for which the Ki was determined as 25 nM. As for `CC(C)(C)c1cc(NC(c2ccc(OC(F)(F)F)c(F)c2)C(C)(C)O)n2ncnc2n1` (single isomer, unassigned) [Example 146, (1S or R)-1-[(5-tert-Butyl[1,2,4]triazolo[1,5-a]pyrimidin-7-yl)amino]-1-[3-fluoro-4-(trifluoro-methoxy)phenyl]-2-methylpropan-2-ol], the Ki is over 2960 nM.

For the molecule `CC(C)(C)c1cc(NC(c2ccc(OC(F)(F)F)c(F)c2)C(C)(C)O)n2ncnc2n1` (single isomer, unassigned) [Example 147, (1R or S)-1-[(5-tert-Butyl[1,2,4]triazolo[1,5-a]pyrimidin-7-yl)amino]-1-[3-fluoro-4-(trifluoro-methoxy)phenyl]-2-methylpropan-2-ol], the inhibition constant (Ki) is over 2960 nM. Consider `CC(C)(C)c1cc(NC(c2ccc(OC(F)(F)F)cc2F)C(C)(C)O)n2ncnc2n1` (single isomer, unassigned) [Example 148, (1S or R)-1-[(5-tert-butyl[1,2,4]triazolo[1,5-a]pyrimidin-7-yl)amino]-1-[2-fluoro-4-(trifluoro-methoxy)phenyl]-2-methylpropan-2-ol], for which the inhibition constant (Ki) was over 2960 nM. The value for `CC(C)(C)c1cc(NC(c2ccc(OC(F)(F)F)cc2F)C(C)(C)O)n2ncnc2n1` (single isomer, unassigned) [Example 149, (1R or S)-1-[(5-tert-butyl[1,2,4]triazolo[1,5-a]pyrimidin-7-yl)amino]-1-[2-fluoro-4-(trifluoro-methoxy)phenyl]-2-methylpropan-2-ol] was over 2960 nM; that for `CC(C)(C)c1cc(NC(c2ccc(S(F)(F)(F)(F)F)cc2)C(C)(C)O)n2ncnc2n1` (single isomer, unassigned) [Example 150, (1S or R)-1-[(5-tert-Butyl[1,2,4]triazolo[1,5-a]pyrimidin-7-yl)amino]-2-methyl-1-[4-(pentafluoro-λ^6-sulfanyl)phenyl] propan-2-ol] was over 2960 nM. As for `CC(C)(C)c1cc(NC(c2ccc(S(F)(F)(F)(F)F)cc2)C(C)(C)O)n2ncnc2n1` (single isomer, unassigned) [Example 151, (1R or S)-1-[(5-tert-Butyl[1,2,4]triazolol[1,5-a]pyrimidin-7-yl)amino]-2-methyl-1-[4-(pentafluoro-λ^6-sulfanyl)phenyl] propan-2-ol], the figure is over 2960 nM; as for `CC(C)(O)C(Nc1cc(C(F)(F)F)nc2ncnn12)c1ccc(C(F)(F)F)cc1Cl` (single isomer, unassigned) [Example 159, (1S or R)-1-[2-Chloro-4-(trifluoromethyl)phenyl]-2-methyl-1-{[5-(trifluoromethyl)[1,2,4]triazolo[1,5-a]pyrimidin-7-yl]amino}propan-2-ol], over 2960 nM. In the case of `CC(C)(O)C(Nc1cc(C(F)(F)F)nc2ncnn12)c1ccc(C(F)(F)F)cc1Cl` (single isomer, unassigned) [Example 160, (1R or S)-1-[2-chloro-4-(trifluoromethyl)phenyl]-2-methyl-1-{[5-(trifluoromethyl)[1,2,4]triazolo[1,5-a]pyrimidin-7-yl]amino}propan-2-ol], the Ki came to 81 nM. As for `CC(C)(C)c1ccc(C(Nc2cc(C(F)(F)F)nc3ncnn23)C(C)(C)O)cc1` (single isomer, unassigned) [Example 161, (1S or S)-1-(4-tert-Butylphenyl)-2-methyl-1-{[5-(trifluoromethyl) [1,2,4]triazolo [1,5-a]pyrimidin-7-yl]amino} propan-2-ol], the figure is 19 nM.
